This passage reports Ki results from patent US8410166B2, “Fused bicyclic compound” (Mitsubishi Tanabe Pharma Corporation, priority 2007, dated 2013).

What is called Ki is a dissociation constant, usually derived from enzyme kinetics or from competition with a known ligand.

A value given as a limit tells only on which side of the number the result lay.

One test addresses T1, mineralocorticoid receptor (MR) (Rattus norvegicus, UniProt P22199).
T1 construct: the homogenate was centrifuged at 100,000×g for 1 hour to give a supernatant as a kidney cytosol fraction; from tissue; host or cells: kidney cytosol fraction of adrenalectomised male Sprague-Dawley rats
T1 sequence (P22199 1-981): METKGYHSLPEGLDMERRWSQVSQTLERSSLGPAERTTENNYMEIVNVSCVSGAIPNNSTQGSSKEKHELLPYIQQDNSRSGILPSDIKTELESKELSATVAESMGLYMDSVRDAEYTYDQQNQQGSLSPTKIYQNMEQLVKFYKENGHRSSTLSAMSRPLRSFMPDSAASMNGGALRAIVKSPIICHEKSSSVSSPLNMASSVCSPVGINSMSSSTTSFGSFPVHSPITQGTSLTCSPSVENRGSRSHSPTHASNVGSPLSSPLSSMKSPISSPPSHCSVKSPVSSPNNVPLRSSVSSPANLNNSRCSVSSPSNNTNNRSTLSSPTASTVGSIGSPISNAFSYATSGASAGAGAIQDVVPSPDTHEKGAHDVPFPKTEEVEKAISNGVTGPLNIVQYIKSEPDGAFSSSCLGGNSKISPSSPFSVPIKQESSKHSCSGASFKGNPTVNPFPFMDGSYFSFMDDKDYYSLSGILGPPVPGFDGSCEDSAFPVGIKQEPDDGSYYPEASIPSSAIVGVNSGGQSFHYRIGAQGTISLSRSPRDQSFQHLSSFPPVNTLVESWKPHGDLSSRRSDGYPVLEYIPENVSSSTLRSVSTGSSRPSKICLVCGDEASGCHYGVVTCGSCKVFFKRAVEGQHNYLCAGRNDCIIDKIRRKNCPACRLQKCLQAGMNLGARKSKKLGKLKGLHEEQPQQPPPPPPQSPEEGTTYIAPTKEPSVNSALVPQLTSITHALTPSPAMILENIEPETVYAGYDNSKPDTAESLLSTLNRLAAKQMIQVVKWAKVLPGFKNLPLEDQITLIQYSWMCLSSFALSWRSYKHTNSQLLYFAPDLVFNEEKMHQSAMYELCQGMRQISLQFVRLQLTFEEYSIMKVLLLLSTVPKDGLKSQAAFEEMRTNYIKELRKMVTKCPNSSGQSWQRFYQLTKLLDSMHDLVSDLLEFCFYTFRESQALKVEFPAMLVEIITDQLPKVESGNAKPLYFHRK
As to the kind of experiment: Aldosterone receptor binding assay (rat kidney cytosol, [3H]aldosterone). The following applies: MR derived from rat kidney, 3H-aldosterone; read-out: Ki values in 3H-aldosterone binding to MR. How it is done:
The compound of the present invention has a high affinity to a mineralocorticoid receptor (MR) of mammals. For example, in a biding assay using a rat MR and ^3H-aldosterone, which was conducted according to a method disclosed in The Journal of Pharmacology and Experimental Therapeutics, 1987; 240: p. […] Accordingly, the compound [I] is useful for treating and/or preventing the diseases associated with MR, e.g., circulatory system disease including hypertension and heart failure etc.
[Aldosterone Receptor Binding Assay]
(1) Preparation of Kidney Cytosol Fraction:
Kidneys derived from post-adrenalectomy Sprague-Dawley male rats (7 weeks old) were homogenized in the following buffer solution and the homogenate was centrifuged at 100,000×g for 1 hour to give a supernatant as a kidney cytosol fraction (protein concentration: 15 mg/mL) for the present biding assay.
Composition of Buffer Solution:
50 mM Tris-HCl (pH 7.5), 250 mM Sucrose, 50 mM Potassium chloride, 3 mM Magnesium chloride, 20 mM Sodium molybdate and 1 mM Mercaptoethanol
A mixture of 5 μL of a solution of each test compound in dimethylsulfoxide, 200 μL of kidney cytosol fraction, 50 μL of physiological saline (or 50 μL of unlabeled aldosterone solution (final concentration: 1 μM) and 50 μL of [^3H] aldosterone solution (ca. 2 nM) was incubated in a test tube at 4° C. overnight. Thereto was added 100 μL of dextrane-coated charcoal/10 mM Tris-HCl buffer and the mixture was incubated at 4° C. for 30 minutes. The reaction mixture was centrifuged at 3000 rpm for 10 minutes and to the supernatant (150 μL) was added 5 mL of a scintillater (Clearsol I, Nakarai Tesque). The radioactivity was measured by a liquid scintilation counter (TRI CARB 2200C A, Packard). The concentration of each test compound required to produce 50% inhibition of aldosterone-binding to receptors (IC50; μM) was calculated on the basis of the above quantitated radioactivity. Moreover, the dissociation constant (Ki) of each test compound was calculated on Cheng and Prusoff s equation (Ki=IC50/(1+[L]/Kd), wherein [L] is [^3H]aldosterone concentration and Kd is the affinity constant of aldosterone).
Turning to `CC1(C)N=C(c2ccc(F)cc2)c2c(F)cc(N)cc2O1` [5-fluoro-4-(4-fluorophenyl)-2,2-dimethyl-2H-1,3-benzoxazin-7-amine], the Ki is below 10000 nM.
Still for that read-out and setting: the same measure for `CC1(C)Oc2cc(N)ccc2C(c2ccc(F)cc2)=C1C#N` [7-amino-4-(4-fluorophenyl)-2,2-dimethyl-2H-chromen-3-carbonitrile]: below 10000 nM.
The same measure, in the same setting: the same measure for `CC1(C)N=C(c2ccc(Cl)cc2)c2ccc(NS(C)(=O)=O)cc2O1` [Example 1, N-[4-(4-chlorophenyl)-2.2-dimethyl-2H-1,3-benzoxazin-7-yl]methanesulfonamide]: below 10000 nM; for `CC1=C(c2ccc(F)cc2)c2ccc(NS(C)(=O)=O)cc2OC1(C)C` [Example 6, N-[4-(4-fluorophenyl)-2,2,3-trimethyl-2H-chromen-7-yl]methanesulfonamide]: below 10000 nM.

The test is the same for the next values; noted with them: [3H]aldosterone binding to MR of rat kidney cytosol fraction; Ki by Cheng-Prusoff; read-out: Ki.
Turning to `CC1(C)N=C(c2ccc(Cl)cc2)c2ccc(NS(C)(=O)=O)cc2O1` [Example 1, N-[4-(4-chlorophenyl)-2.2-dimethyl-2H-1,3-benzoxazin-7-yl]methanesulfonamide], the inhibition constant Ki was below 500 nM.
As for `CC1=C(c2ccc(F)cc2)c2ccc(NS(C)(=O)=O)cc2OC1(C)C` [Example 6, N-[4-(4-fluorophenyl)-2,2,3-trimethyl-2H-chromen-7-yl]methanesulfonamide], the Ki was below 500 nM.
Same read-out and setting: under `CC1(C)CC(c2ccc(F)cc2)c2ccc(NS(C)(=O)=O)cc2O1` (centres unmarked) [Example 8, N-[4-(4-fluorophenyl)-2,2-dimethyl-3,4-dihydro-2H-chromen-7-yl]methanesulfonamide] stands below 500 nM; under `CC1(C)N=C(c2ccccc2)c2ccc(NS(C)(=O)=O)cc2O1` [Example 10], 500 to 1000 nM.
Still for that read-out and setting: under `CC1(C)N=C(c2csc3ccccc23)c2ccc(NS(C)(=O)=O)cc2O1` [Example 26] stands below 500 nM.
For `Cc1cc(Cl)ccc1C1=CC(C)(C)Oc2cc(NS(C)(=O)=O)ccc21` [Example 42], the Ki was below 500 nM.
`Cc1cc(NS(C)(=O)=O)cc2c1C(c1ccc(F)cc1)=NC(C)(C)O2` [Example 47]: the Ki was below 500 nM.
Same read-out and setting: under `CC1(C)Oc2cc(NS(C)(=O)=O)ccc2C(c2ccc(Cl)c(F)c2)=C1C#N` [Example 53] stands below 500 nM; under `CS(=O)(=O)Nc1ccc2c(c1)OC1(CCCC1)C(C#N)=C2c1ccc(F)cc1` [Example 55(2) compound (a), N-[3-cyano-4-(4-fluorophenyl)spiro[chromen-2′,1′-cyclopentan]-7-yl]methanesulfonamide], below 500 nM.
Take `CNS(=O)(=O)c1ccc2c(c1)OC(C)(C)N=C2c1ccc(F)cc1` [Example 61, N,2,2-trimethyl-4-(4-fluorophenyl)-2H-1,3-benzoxazin-7-sulfonamide]: the Ki was 500 to 1000 nM.
